Assay results published in patent publication US10487093B2, “Heterocyclic compounds, in particular 2-oxo-4,4,5,5,6,6,7,7-octahydrobenzoxazole derivatives, and their use as antibacterial compounds” (priority 2016, dated 2019).

system: Gram-negative and Gram-positive bacterial strains; assay type: cell-based; conditions: including those which are resistant to fluoroquinolone antibiotics and other antibiotics

| Compound | activity against all strains of A. baumannii and E. coli tested (in words) |
| --- | --- |
| COc1cnc2ccc(=O)n(CCN[C@@H]3CC[C@@H]4[C@@H](C3)OC(=O)N4c3ccc4c(n3)NC(=O)CO4)c2c1 [Compound 69, 1-(2-{[(3aR,6R,7aR)-2-oxo-3-{3-oxo-2H,3H,4H-pyrido[3,2-b][1,4]oxazin-6-yl}-octahydro-1,3-benzoxazol-6-yl]amino}ethyl)-7-methoxy-1,2-dihydro-1,5-naphthyridin-2-one] | excellent activity |
| N#Cc1cnc2ccc(=O)n(CCN[C@H]3CC[C@H]4[C@H](C3)OC(=O)N4c3ccc4c(n3)NC(=O)CO4)c2c1 [Compound 55, 5-(2-{[(3aS,6S,7aS)-2-oxo-3-{3-oxo-2H,3H,4H-pyrido[3,2-b][1,4]oxazin-6-yl}-octahydro-1,3-benzoxazol-6-yl]amino}ethyl)-6-oxo-5,6-dihydro-1,5-naphthyridine-3-carbonitrile] | excellent activity |
| O=C1COc2ccc(N3C(=O)O[C@H]4C[C@@H](NCCn5c(=O)cnc6cc(F)c(F)cc65)CC[C@@H]43)nc2N1 [Compound 34, 1-(2-{[(3aS,6S,7aS)-2-oxo-3-{3-oxo-2H,3H,4H-pyrido[3,2-b][1,4]oxazin-6-yl}-octahydro-1,3-benzoxazol-6-yl]amino}ethyl)-6,7-difluoro-1,2-dihydroquinoxalin-2-one] | excellent activity |
| O=C1COc2ccc(N3C(=O)O[C@H]4C[C@@H](NCCn5c(=O)ccc6ccc(OC(F)F)cc65)CC[C@@H]43)nc2N1 [Compound 101, 1-(2-{[(3aS,6S,7aS)-2-oxo-3-{3-oxo-2H,3H,4H-pyrido[3,2-b][1,4]oxazin-6-yl}-octahydro-1,3-benzoxazol-6-yl]amino}ethyl)-7-(difluoromethoxy)-1,2-dihydro quinolin-2-one] | excellent activity |
| O=C1COc2ccc(N3C(=O)O[C@@H]4C[C@H](NCCCn5c(=O)cnc6cc(F)c(F)cc65)CC[C@H]43)nc2N1 [Compound 88, 1-(3-{[(3aR,6R,7aR)-2-oxo-3-{3-oxo-2H,3H,4H-pyrido[3,2-b][1,4]oxazin-6-yl}-octahydro-1,3-benzoxazol-6-yl]amino}propyl)-6,7-difluoro-1,2-dihydroquinoxalin-2-one] | excellent activity |
| O=C1COc2ccc(N3C(=O)O[C@@H]4C[C@@H](NCCn5c(=O)cnc6cc(F)c(F)cc65)CC[C@@H]43)nc2N1 [Compound 22, 1-(2-{[(3aS,6S,7aR)-2-oxo-3-{3-oxo-2H,3H,4H-pyrido[3,2-b][1,4]oxazin-6-yl}-octahydro-1,3-benzoxazol-6-yl]amino}ethyl)-6,7-difluoro-1,2-dihydroquinoxalin-2-one] | excellent activity |
| N#Cc1ccc2ccc(=O)n(CCN[C@H]3CC[C@H]4[C@H](C3)OC(=O)N4c3ccc4c(n3)NC(=O)CO4)c2c1 [Compound 56, 1-(2-{[(3aS,6S,7aS)-2-oxo-3-{3-oxo-2H,3H,4H-pyrido[3,2-b][1,4]oxazin-6-yl}-octahydro-1,3-benzoxazol-6-yl]amino}ethyl)-2-oxo-1,2-dihydroquinoline-7-carbonitrile] | excellent activity |
| O=C1COc2ccc(N3C(=O)O[C@H]4C[C@@H](NCCCn5c(=O)cnc6cc(F)c(F)cc65)CC[C@@H]43)nc2N1 [Compound 90, 1-(3-{[(3aS,6S,7aS)-2-oxo-3-{3-oxo-2H,3H,4H-pyrido[3,2-b][1,4]oxazin-6-yl}-octahydro-1,3-benzoxazol-6-yl]amino}propyl)-6,7-difluoro-1,2-dihydroquinoxalin-2-one] | excellent activity |
| N#Cc1cccc(-c2cccc(CN[C@H]3CC[C@H]4[C@H](C3)OC(=O)N4c3ccc4c(n3)NC(=O)CO4)n2)c1 [Compound 105, 3-[6-({[(3aS,6S,7aS)-2-oxo-3-{3-oxo-2H,3H,4H-pyrido[3,2-b][1,4]oxazin-6-yl}-octahydro-1,3-benzoxazol-6-yl]amino}methyl)pyridin-2-yl]benzonitrile] | excellent activity |
| N#Cc1ccc2ncc(=O)n(CCN[C@@H]3CC[C@@H]4[C@@H](C3)OC(=O)N4c3ccc4c(n3)NC(=O)CO4)c2c1 [Compound 68, 4-(2-{[(3aR,6R,7aR)-2-oxo-3-{3-oxo-2H,3H,4H-pyrido[3,2-b][1,4]oxazin-6-yl}-octahydro-1,3-benzoxazol-6-yl]amino}ethyl)-3-oxo-3,4-dihydroquinoxaline-6-carbonitrile] | excellent activity |
| COc1ccc2ncc(=O)n(CCN[C@H]3CCC4C(C3)OC(=O)N4c3ccc4c(n3)NC(=O)CO4)c2n1 (stereo in doubt) [Compound 45, (3aS,6S,7aS)-6-[(2-{6-methoxy-3-oxo-3H,4H-pyrido[2,3-b]pyrazin-4-yl}ethyl)amino]-3-{3-oxo-2H,3H,4H-pyrido[3,2-b][1,4]oxazin-6-yl}-octahydro-1,3-benzoxazol-2-one] | excellent activity |
| COc1ccc2ccc(=O)n(CCN[C@H]3CC[C@H]4[C@@H](C3)OC(=O)N4c3ccc4c(n3)NC(=O)CO4)c2n1 [Compound 4, 1-(2-{[(3aS,6S,7aR)-2-oxo-3-{3-oxo-2H,3H,4H-pyrido[3,2-b][1,4]oxazin-6-yl}-octahydro-1,3-benzoxazol-6-yl]amino}ethyl)-7-methoxy-1,2-dihydro-1,8-naphthyridin-2-one] | excellent activity |
| COc1ccc2ncc(=O)n(CCN[C@@H]3CC[C@@H]4[C@@H](C3)OC(=O)N4c3ccc4c(n3)NC(=O)CO4)c2c1 [Compound 21, 1-(2-{[(3aR,6R,7aR)-2-oxo-3-{3-oxo-2H,3H,4H-pyrido[3,2-b][1,4]oxazin-6-yl}-octahydro-1,3-benzoxazol-6-yl]amino}ethyl)-7-methoxy-1,2-dihydroquinoxalin-2-one] | excellent activity |
| COc1ccc2ccc(=O)n(CCCN[C@H]3CC[C@H]4[C@H](C3)OC(=O)N4c3ccc4c(n3)NC(=O)CS4)c2n1 [Compound 85, 1-(3-{[(3aS,6S,7aS)-2-oxo-3-{3-oxo-2H,3H,4H-pyrido[3,2-b][1,4]thiazin-6-yl}-octahydro-1,3-benzoxazol-6-yl]amino}propyl)-7-methoxy-1,2-dihydro-1,8-naphthyridin-2-one] | excellent activity |
| COc1cccc(-c2cccc(CN[C@@H]3CC[C@@H]4[C@@H](C3)OC(=O)N4c3ccc4c(n3)NC(=O)CO4)c2)n1 [Compound 80, (3aR,6R,7aR)-6-({[3-(6-methoxypyridin-2-yl)phenyl]methyl}amino)-3-{3-oxo-2H,3H,4H-pyrido[3,2-b][1,4]oxazin-6-yl}-octahydro-1,3-benzoxazol-2-one] | excellent activity |
| COc1ccc2ccc(=O)n(CCN[C@H]3CC[C@H]4[C@H](C3)OC(=O)N4c3ccc4c(n3)NC(=O)CO4)c2c1 [Compound 102, 1-(2-{[(3aS,6S,7aS)-2-oxo-3-{3-oxo-2H,3H,4H-pyrido[3,2-b][1,4]oxazin-6-yl}-octahydro-1,3-benzoxazol-6-yl]amino}ethyl)-7-methoxy-1,2-dihydroquinolin-2-one] | excellent activity |
| N#Cc1cnc2ccc(=O)n(CCN[C@H]3CC[C@H]4[C@H](C3)OC(=O)N4c3ccc4c(n3)NC(=O)CS4)c2c1 [Compound 77, 5-(2-{[(3aS,6S,7aS)-2-oxo-3-{3-oxo-2H,3H,4H-pyrido[3,2-b][1,4]thiazin-6-yl}-octahydro-1,3-benzoxazol-6-yl]amino}ethyl)-6-oxo-5,6-dihydro-1,5-naphthyridine-3-carbonitrile] | excellent activity |
| COc1cnc2ccc(=O)n(CCN[C@H]3CC[C@H]4[C@H](C3)OC(=O)N4c3ccc4c(n3)NC(=O)CS4)c2c1 [Compound 81, 1-(2-{[(3aS,6S,7aS)-2-oxo-3-{3-oxo-2H,3H,4H-pyrido[3,2-b][1,4]thiazin-6-yl}-octahydro-1,3-benzoxazol-6-yl]amino}ethyl)-7-methoxy-1,2-dihydro-1,5-naphthyridin-2-one] | excellent activity |
